Tests used:
acpP mRNA = assay: RNA-seq of KFF-ASO-treated Salmonella (acpP mRNA depletion); assay type: cell-based, Salmonella enterica serovar Typhimurium strain SL1344; design: key to acpP depletion (RNA-seq): +++: Effect strength is represented by additional (+) signs.; ++: Effect strength is represented by additional (+) signs.; Effect strength is represented by additional (+) signs; details: 15 min; for acpP depletion (RNA-seq): ASO conjugated to the carrier peptide, 5 µM, summary grade
Experimental: To assay bacterial responses to the different ASO modalities and to determine target mRNA depletion in cellulo, we performed RNA-seq analysis of Salmonella challenged with 5 µM KFF-ASO conjugates for 15 min. We first evaluated two individual RNA-seq experiments by principal component analysis (PCA) and observed three distinct clusters (Fig. 5). The PCA cluster 1 grouped the water control, RNA-MOE, RNA-OMe, and the PNA-treated conditions. […] Cluster 2 grouped the other negASOs. As we have previously observed for KFF peptide exposure ([Popella et al. 2021], [2022]), these treatments led to the activation of a cationic antimicrobial peptide (CAMP) response, including induction of the PhoP/Q and PmrA/B regulons involved in remodeling LPS, and the CpxR regulon that responds to envelope stress (Fig. 7). […] These treatments also led to the down-regulation of genes responsible for the destruction of superoxide anion radicals (sodB) and those involved in manganese efflux (yebN) (Figs. 6 and 7). Finally, cluster 3 grouped samples of the unconjugated peptides and the PMO treatment. Similarly to cluster 2, these activated a strong CAMP response (Fig. 7).
RNA isolation was performed using previously published protocols ([Popella et al. 2021], [2022]). Bacterial overnight cultures were diluted 1:100 in fresh MHB and grown to OD600 0.5. The cultures were diluted to ∼10^6 cfu/mL in noncation-adjusted MHB. […]
Total RNA was purified from bacterial pellets using the miRNeasy Mini kit (Qiagen) according to protocol #3 described in [Popella et al. (2021]). […] RNA concentration was measured with a NanoDrop spectrophotometer.
For transcriptomic analyses, RNA samples were processed and subjected to RNA-seq at the Core Unit SysMed (University of Würzburg). […] Sequencing of pooled libraries, spiked with 5% PhiX control library, was performed at 10 million reads/sample in single-end mode with 75 nt read length on the NextSeq 500 platform (Illumina) using High output sequencing kits. […]

[1] = tested on: Salmonella outer membrane; assay: Outer membrane permeabilization (NPN fluorescence); assay type: cell-based, Salmonella enterica serovar Typhimurium strain SL1344; design: key to Outer membrane permeation: +++: Effect strength is represented by additional (+) signs.; ++: Effect strength is represented by additional (+) signs.; Effect strength is represented by additional (+) signs; details: for Outer membrane permeation: ASO conjugated to the carrier peptide, 10 µM, NPN fluorescence, summary grade; for Outer membrane permeabilization, NPN fluorescence (in words): KFF-ASOs 10 µM, CTAB 10 µM, PMXB 0.4 µM, added after 14 min
From the text: Because the negASOs are ineffective in bacterial cells despite their activity in cell-free systems, we investigated if these ASOs affected the ability of the KFF carrier peptide to induce OM permeabilization. Therefore, we used the hydrophobic fluorophore N-phenylnaphthylamine (NPN), a dye that turns fluorescent after binding to hydrophobic regions within cell membranes. This only occurs in cells with a compromised OM ([Ghosh et al. 2016]; [Ellis et al. 2019]). […] However, when conjugated to negASOs, the KFF carrier is unable to permeabilize the OM (Fig. 10). This could potentially be due to electrostatic interactions between the negASOs and the positively charged KFF.
The experiments were performed by modifying previously published protocols ([Ghosh et al. 2016]; [Ellis et al. 2019]; [Zheng et al. 2021]). Salmonella (WT SL1344, JVS-1574) were grown overnight in 4 mL MHB medium at 37°C (with shaking at 220 rpm). Then the culture was diluted 1:100 and grown until OD600 0.5 (∼2 × 10^8 cfu/mL). This culture was harvested and washed two times with 5 mM HEPES and further diluted to OD600 0.2 in 5 mM HEPES supplemented with 5 mM Glucose (pH 7.2). These cells were then incubated with NPN (Sigma) at a final concentration of 10 µM. One hundred and ninety microliters of NPN-treated cells were transferred into 96-well back plates with transparent bottoms and fluorescence (excitation = 350 nm, emission = 420 nm) was recorded for 60 min (reading was performed every minute) using a Synergy H1 plate reader (Biotek). On the 14th minute, 10 µL of the test compounds (10 µM final concentration) was added into the wells. CTAB (Sigma) 10 µM (final concentration) or PMXB (Sigma) (final concentration of 0.4 µM) were used as positive controls, while water was used as negative control. The fluorescence of the wells was monitored using the same settings as above. The plots were created using OrginPro 2023. The experiment was performed twice and Figure 10 is a representative example of two independent experiments.

PNA: peptide nucleic acid 10mer ASO, sequence CTCATACTCT, targeting acpP −5 to +5 (all peptide nucleic acid (PNA))
acpP mRNA levels after treatment (in words) (acpP mRNA; 5 µM KFF-ASO conjugates, RNA-seq): reduces the levels of acpP mRNA | acpP depletion (RNA-seq) (acpP mRNA): ++ | Outer membrane permeation [1]: ++ | Outer membrane permeabilization, NPN fluorescence (in words) [1]: this ability is retained upon conjugation

PMO: phosphorodiamidate morpholino 10mer ASO, sequence CTCATACTCT, targeting acpP −5 to +5 (all phosphorodiamidate morpholino (PMO))
acpP depletion (RNA-seq) (acpP mRNA): + | Outer membrane permeation [1]: ++ | Outer membrane permeabilization, NPN fluorescence (in words) [1]: this ability is retained upon conjugation

From publication PMC11098465, “A comparative analysis of peptide-delivered antisense antibiotics using diverse nucleotide mimics” (RNA, 2024)
